The source of these data is PMC7369637, “Inhibition of Resistance-Refractory P. falciparum Kinase PKG Delivers Prophylactic, Blood Stage, and Transmission-Blocking Antiplasmodial Activity” (Cell Chemical Biology, 2020).

What all share (format): binding
Test [1] has as its target T1, cGMP-dependent protein kinase (PKG) (PF3D7_1436600) (Plasmodium falciparum, UniProt Q8I719).
T1 construct: The beads were incubated at 4°C for 1 h with either 0.1 ml (0.3 mg) Pf blood stage extract; endogenous in cells; host or cells: P. falciparum asexual blood-stage parasites (trophozoite stage), saponin-freed and lysed
As to the kind of experiment: Competitive chemoproteomics in Pf lysates (Kinobeads / bead-immobilized compound). The settings on record: lysates exposed to 40 μM of the same compound vs vehicle.
Description: Parasite cultures at the trophozoite stage were harvested, washed twice in RPMI 1640 medium (Gibco), and lysed by the addition of saponin to a final concentration of 0.1% for 5 min at room temperature. Free parasites were sedimented by centrifugation (3500 rpm for 10 min), washed three times with phosphate-buffered saline, and stored at −80°C. Parasites were resuspended in cell lysis buffer (50 mM tris-HCl (pH 7.5), 5% glycerol, 1.5 mM MgCl2, 1.5 mM NaCl, 1 mM Na3PO4, 25 mM sodium fluoride, 0.8% NP-40, EDTA-free protease inhibitor cocktail tablets (Roche Diagnostics), and 1 mM DTT) and disrupted by sonication (Sonics Vibra-Cell) using two 30-s cycles on ice at half-amplitude. […]
Kinobeads were prepared by immobilizing Bis-(III) indolyl-maleimide, purvalanol B, staurosporine and CZC8004, and the analogs of PD173955, sunitinib and vandetanib on NHS-activated Sepharose 4 beads (Amersham) ([Bantscheff et al., 2007]). […] 10 samples were measured in parallel (TMT 10-plex ([Werner et al., 2014])) to generate values for the affinity of the beads to the bound proteins (“depletion” values, 4 samples) and to generate IC50 values (6 samples) in a single experiment. Apparent dissociation constants were determined after accounting for protein depletion by the beads ([Bantscheff et al., 2011]). […]

In test [2] the target is T2, casein kinase 1δ (Homo sapiens, UniProt P48730).
T2 construct: human cell/tissue protein extract (a mixture of HEK-293, K-562, Hep G2 , and placental cells); endogenous in cells; host or cells: mixture of HEK-293, K-562, Hep G2 and placenta
T2 sequence (P48730 whole entry): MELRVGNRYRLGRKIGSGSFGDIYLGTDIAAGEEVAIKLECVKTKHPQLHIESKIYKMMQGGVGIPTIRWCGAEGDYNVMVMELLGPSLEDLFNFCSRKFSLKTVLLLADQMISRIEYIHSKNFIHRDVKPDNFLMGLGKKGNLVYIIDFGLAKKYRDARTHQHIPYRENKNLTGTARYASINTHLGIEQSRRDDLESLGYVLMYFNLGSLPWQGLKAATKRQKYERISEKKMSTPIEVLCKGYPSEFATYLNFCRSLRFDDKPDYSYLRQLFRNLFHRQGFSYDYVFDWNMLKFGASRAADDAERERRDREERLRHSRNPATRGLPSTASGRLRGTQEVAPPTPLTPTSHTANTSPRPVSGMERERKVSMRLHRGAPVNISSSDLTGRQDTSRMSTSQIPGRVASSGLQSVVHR
The test is described as follows: Chemoproteomics in human mixed tissue extracts. The settings on record: read-out: Kdapp. The procedure:
(§1) Human extracts were prepared as described ([Bantscheff et al., 2011]). Briefly, frozen cell pellets were homogenized in lysis buffer (50 mM Tris-HCl, 0.8% Igepal-CA630, 5% glycerol, 150 mM NaCl, 1.5 mM MgCl2, 25 mM sodium fluoride, 1 mM sodium vanadate, 1 mM DTT, pH 7.5). One cOmplete EDTA-free protease inhibitor tablet (Roche) was added per 25 ml. Samples were dispersed using a Dounce homogenizer, rotated for 30 min at 4°C, and centrifuged at 20,000g for 10 min at 4°C. Supernatants were then recentrifuged at 145,000g for 1 h at 4°C. Protein concentrations were determined using a Bradford assay (BioRad). Aliquots were snap frozen in liquid nitrogen and stored at −80°C.
(§2) Kinobeads were prepared by immobilizing Bis-(III) indolyl-maleimide, purvalanol B, staurosporine and CZC8004, and the analogs of PD173955, sunitinib and vandetanib on NHS-activated Sepharose 4 beads (Amersham) ([Bantscheff et al., 2007]). […] The chemoproteomic affinity-capturing experiments were performed as previously described ([Bantscheff et al., 2011]). Briefly, beads were washed and equilibrated in lysis buffer (50 mM Tris-HCl, pH 7.4, 0.4 % Igepal-CA630, 1.5 mM MgCl2, 5 % Glycerol, 150 mM NaCl, 25 mM NaF, 1 mM Na3VO4, 1 mM DTT, and one cOmplete EDTA-free protease inhibitor tablet (Roche) per 25 mL). The beads were incubated at 4°C for 1 h with either 0.1 ml (0.3 mg) Pf blood stage extract or 0.5 mL (2.5 mg) human cell/tissue protein extract (a mixture of HEK-293, K-562, Hep G2 , and placental cells), which was pre-incubated with compound or DMSO (vehicle control). 10 samples were measured in parallel (TMT 10-plex ([Werner et al., 2014])) to generate values for the affinity of the beads to the bound proteins (“depletion” values, 4 samples) and to generate IC50 values (6 samples) in a single experiment. Apparent dissociation constants were determined after accounting for protein depletion by the beads ([Bantscheff et al., 2011]). Beads were transferred to Filter plates (Durapore PVDF membrane, Merck Millipore), washed with lysis buffer, and eluted with SDS sample buffer.
(§3) Proteins were digested according to a modified single pot solid-phase sample preparation (SP3) protocol ([Hughes et al., 2014]). Peptides were labeled with isobaric mass tags (Thermo Fisher Scientific, Waltham, MA) using 10-plex TMT reagents, enabling relative quantification of 10 conditions in a single experiment ([Werner et al., 2014]). The labeling reactions and LC-MS/MS measurements using Q Exactive Orbitrap or Orbitrap Fusion Lumos mass spectrometers (Thermo Fisher Scientific) were performed as described elsewhere ([Sridharan et al., 2019]). Mascot 2.4 (Matrix Science, Boston, MA) was used for protein identification by using a 10 parts per million mass tolerance for peptide precursors and 20 mD (HCD) mass tolerance for fragment ions. To create the fasta file for mascot searching, all proteins corresponding to the taxonomy ‘Plasmodium falciparum (isolate 3D7)’ were downloaded from Uniprot (release 20170621) and supplemented with common contaminant protein sequences of bovine serum albumin, porcine trypsin and mouse, rat, sheep and dog keratins. To assess the false discovery rate (FDR), “decoy” proteins (reverse of all protein sequences) were created and added to the database, resulting in a database containing a total of 14266 protein sequences, with 50% forward and 50% reverse. For peptide and protein identification of human proteins see ([Sridharan et al., 2019]). Unless stated otherwise, we accepted protein identifications as follows: (i) For single-spectrum to sequence assignments, we required this assignment to be the best match and a minimum Mascot score of 31 and a 10× difference of this assignment over the next best assignment. Based on these criteria, the decoy search results indicated <1% false discovery rate (FDR). (ii) For multiple spectrum to sequence assignments and using the same parameters, the decoy search results indicated <0.1% FDR. […]

For test [3], the target named is T3, receptor interacting serine/threonine kinase 2 (Homo sapiens, UniProt O43353).
T3 construct: human cell/tissue protein extract (a mixture of HEK-293, K-562, Hep G2 , and placental cells); endogenous in cells; host or cells: mixture of HEK-293, K-562, Hep G2 and placenta
T3 sequence (O43353 whole entry): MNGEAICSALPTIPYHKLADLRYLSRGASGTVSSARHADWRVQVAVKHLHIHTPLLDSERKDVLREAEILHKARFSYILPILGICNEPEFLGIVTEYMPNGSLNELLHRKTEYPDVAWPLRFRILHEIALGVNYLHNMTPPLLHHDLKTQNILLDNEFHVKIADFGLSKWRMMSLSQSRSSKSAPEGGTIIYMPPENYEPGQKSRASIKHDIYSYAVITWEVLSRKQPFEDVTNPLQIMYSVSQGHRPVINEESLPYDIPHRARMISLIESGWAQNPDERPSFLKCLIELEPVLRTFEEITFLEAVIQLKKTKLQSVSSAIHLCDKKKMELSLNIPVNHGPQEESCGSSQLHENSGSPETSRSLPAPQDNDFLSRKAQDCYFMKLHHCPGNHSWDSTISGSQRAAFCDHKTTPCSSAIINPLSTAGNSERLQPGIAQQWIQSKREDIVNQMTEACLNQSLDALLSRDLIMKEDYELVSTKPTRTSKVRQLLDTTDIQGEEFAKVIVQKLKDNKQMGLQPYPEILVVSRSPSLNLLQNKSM
As to the kind of experiment: Chemoproteomics in human mixed tissue extracts. The note with it: read-out: Kdapp. The procedure: as §1, §2, §3

The target in test [4] is T4, protein kinase N3 (Homo sapiens, UniProt Q6P5Z2).
T4 construct: human cell/tissue protein extract (a mixture of HEK-293, K-562, Hep G2 , and placental cells); endogenous in cells; host or cells: mixture of HEK-293, K-562, Hep G2 and placenta
T4 sequence (Q6P5Z2 whole entry): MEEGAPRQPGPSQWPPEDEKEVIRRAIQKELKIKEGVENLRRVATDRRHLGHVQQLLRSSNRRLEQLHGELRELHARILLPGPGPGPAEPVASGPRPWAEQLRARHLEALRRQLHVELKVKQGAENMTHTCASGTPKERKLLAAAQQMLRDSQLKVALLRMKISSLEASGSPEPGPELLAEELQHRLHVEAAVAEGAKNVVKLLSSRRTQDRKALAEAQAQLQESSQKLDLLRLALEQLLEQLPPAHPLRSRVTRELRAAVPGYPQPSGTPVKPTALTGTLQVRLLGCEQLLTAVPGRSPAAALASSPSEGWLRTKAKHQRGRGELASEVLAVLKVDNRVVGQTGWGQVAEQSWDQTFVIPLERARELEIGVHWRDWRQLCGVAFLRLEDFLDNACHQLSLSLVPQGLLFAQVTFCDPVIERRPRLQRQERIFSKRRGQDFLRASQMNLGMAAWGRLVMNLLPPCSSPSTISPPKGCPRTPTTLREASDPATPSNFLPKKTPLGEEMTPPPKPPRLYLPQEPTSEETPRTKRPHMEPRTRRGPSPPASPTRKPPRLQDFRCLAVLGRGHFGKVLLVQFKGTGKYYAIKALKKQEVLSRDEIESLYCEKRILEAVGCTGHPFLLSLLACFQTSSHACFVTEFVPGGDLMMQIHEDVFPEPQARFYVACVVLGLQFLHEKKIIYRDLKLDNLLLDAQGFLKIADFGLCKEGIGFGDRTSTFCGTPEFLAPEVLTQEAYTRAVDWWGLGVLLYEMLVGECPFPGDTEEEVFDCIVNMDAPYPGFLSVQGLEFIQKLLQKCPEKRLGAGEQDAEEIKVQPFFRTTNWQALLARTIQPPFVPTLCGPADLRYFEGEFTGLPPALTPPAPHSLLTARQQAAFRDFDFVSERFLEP
The test is described as follows: Chemoproteomics in human mixed tissue extracts. The settings on record: read-out: Kdapp. On the procedure: as §1, §2, §3

Test [5] has as its target T5, transforming growth factor β receptor 1 (Homo sapiens, UniProt P36897).
T5 construct: human cell/tissue protein extract (a mixture of HEK-293, K-562, Hep G2 , and placental cells); endogenous in cells; host or cells: mixture of HEK-293, K-562, Hep G2 and placenta
As to the kind of experiment: Chemoproteomics in human mixed tissue extracts. The settings on record: read-out: Kdapp. The procedure:
as §1, §2, §3

In test [6] the target is T6, nemo-like kinase (Homo sapiens, UniProt Q9UBE8).
T6 construct: human cell/tissue protein extract (a mixture of HEK-293, K-562, Hep G2 , and placental cells); endogenous in cells; host or cells: mixture of HEK-293, K-562, Hep G2 and placenta
T6 sequence (Q9UBE8 whole entry): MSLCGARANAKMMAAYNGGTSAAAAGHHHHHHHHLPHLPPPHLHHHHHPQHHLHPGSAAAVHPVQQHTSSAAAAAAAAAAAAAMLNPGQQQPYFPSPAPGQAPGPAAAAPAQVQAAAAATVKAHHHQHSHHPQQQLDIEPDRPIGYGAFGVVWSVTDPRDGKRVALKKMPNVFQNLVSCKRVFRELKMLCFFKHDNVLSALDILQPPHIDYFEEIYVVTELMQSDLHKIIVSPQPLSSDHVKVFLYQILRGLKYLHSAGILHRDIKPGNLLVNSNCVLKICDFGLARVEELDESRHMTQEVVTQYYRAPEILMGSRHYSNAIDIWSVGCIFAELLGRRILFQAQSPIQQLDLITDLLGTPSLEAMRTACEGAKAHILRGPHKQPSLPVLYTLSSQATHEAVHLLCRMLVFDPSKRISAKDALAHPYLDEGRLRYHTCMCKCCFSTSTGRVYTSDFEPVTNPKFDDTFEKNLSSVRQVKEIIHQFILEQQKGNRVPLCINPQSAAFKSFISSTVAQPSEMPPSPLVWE
The test is described as follows: Chemoproteomics in human mixed tissue extracts. The settings on record: read-out: Kdapp. On the procedure: as §1, §2, §3

In test [7] the target is T7, transforming growth factor β receptor 2 (Homo sapiens, UniProt P37173).
T7 construct: human cell/tissue protein extract (a mixture of HEK-293, K-562, Hep G2 , and placental cells); endogenous in cells; host or cells: mixture of HEK-293, K-562, Hep G2 and placenta
T7 sequence (P37173 23-567): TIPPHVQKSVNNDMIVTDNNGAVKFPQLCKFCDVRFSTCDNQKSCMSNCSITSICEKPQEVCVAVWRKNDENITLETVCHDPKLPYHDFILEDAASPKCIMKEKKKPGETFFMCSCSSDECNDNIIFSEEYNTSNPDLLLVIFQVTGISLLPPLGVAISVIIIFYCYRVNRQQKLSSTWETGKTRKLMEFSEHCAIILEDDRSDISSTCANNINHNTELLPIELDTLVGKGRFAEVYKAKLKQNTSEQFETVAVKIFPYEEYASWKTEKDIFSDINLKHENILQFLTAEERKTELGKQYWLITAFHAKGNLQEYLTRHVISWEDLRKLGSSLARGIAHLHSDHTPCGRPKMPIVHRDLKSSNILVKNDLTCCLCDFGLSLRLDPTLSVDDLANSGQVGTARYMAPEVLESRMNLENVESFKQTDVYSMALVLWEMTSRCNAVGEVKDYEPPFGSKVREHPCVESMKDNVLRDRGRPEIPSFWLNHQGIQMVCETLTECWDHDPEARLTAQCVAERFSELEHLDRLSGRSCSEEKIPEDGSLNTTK
As to the kind of experiment: Chemoproteomics in human mixed tissue extracts. The note with it: read-out: Kdapp. The procedure:
as §1, §2, §3

For test [8], the target named is T8, testis-associated actin remodeling kinase 2 (Homo sapiens, UniProt Q96S53).
T8 construct: human cell/tissue protein extract (a mixture of HEK-293, K-562, Hep G2 , and placental cells); endogenous in cells; host or cells: mixture of HEK-293, K-562, Hep G2 and placenta
T8 sequence (Q96S53 whole entry): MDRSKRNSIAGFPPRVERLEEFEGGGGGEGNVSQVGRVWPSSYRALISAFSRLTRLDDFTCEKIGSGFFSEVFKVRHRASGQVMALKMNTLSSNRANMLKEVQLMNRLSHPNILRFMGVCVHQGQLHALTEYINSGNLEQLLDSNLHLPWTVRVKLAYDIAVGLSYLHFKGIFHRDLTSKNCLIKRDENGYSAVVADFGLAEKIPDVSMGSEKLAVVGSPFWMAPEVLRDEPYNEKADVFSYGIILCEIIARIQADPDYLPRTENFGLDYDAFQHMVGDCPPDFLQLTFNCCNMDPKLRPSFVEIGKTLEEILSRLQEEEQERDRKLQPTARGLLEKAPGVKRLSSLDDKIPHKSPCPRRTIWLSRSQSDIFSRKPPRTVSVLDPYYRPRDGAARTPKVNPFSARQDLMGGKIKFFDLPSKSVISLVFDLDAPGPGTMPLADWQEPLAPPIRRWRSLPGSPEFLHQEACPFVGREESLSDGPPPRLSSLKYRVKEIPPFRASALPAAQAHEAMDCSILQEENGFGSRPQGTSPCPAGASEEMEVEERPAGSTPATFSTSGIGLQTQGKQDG
As to the kind of experiment: Chemoproteomics in human mixed tissue extracts. The settings on record: read-out: Kdapp. The procedure:
as §1, §2, §3

The structures appear in SMILES notation. pKd: −log10 of the molar value.

T5 sequence (P36897 34-503): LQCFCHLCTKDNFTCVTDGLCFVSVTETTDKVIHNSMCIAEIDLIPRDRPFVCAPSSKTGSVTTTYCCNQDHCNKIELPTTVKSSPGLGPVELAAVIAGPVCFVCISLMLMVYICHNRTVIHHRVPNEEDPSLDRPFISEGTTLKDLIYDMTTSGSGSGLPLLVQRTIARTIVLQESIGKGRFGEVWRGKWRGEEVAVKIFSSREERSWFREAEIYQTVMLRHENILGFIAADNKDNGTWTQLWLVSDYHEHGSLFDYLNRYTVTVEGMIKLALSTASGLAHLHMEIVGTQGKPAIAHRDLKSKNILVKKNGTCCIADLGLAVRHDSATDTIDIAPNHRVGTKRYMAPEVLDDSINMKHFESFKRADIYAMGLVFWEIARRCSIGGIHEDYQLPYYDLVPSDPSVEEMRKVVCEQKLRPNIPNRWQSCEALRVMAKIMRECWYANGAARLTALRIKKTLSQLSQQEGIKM
T1 sequence (Q8I719 whole entry): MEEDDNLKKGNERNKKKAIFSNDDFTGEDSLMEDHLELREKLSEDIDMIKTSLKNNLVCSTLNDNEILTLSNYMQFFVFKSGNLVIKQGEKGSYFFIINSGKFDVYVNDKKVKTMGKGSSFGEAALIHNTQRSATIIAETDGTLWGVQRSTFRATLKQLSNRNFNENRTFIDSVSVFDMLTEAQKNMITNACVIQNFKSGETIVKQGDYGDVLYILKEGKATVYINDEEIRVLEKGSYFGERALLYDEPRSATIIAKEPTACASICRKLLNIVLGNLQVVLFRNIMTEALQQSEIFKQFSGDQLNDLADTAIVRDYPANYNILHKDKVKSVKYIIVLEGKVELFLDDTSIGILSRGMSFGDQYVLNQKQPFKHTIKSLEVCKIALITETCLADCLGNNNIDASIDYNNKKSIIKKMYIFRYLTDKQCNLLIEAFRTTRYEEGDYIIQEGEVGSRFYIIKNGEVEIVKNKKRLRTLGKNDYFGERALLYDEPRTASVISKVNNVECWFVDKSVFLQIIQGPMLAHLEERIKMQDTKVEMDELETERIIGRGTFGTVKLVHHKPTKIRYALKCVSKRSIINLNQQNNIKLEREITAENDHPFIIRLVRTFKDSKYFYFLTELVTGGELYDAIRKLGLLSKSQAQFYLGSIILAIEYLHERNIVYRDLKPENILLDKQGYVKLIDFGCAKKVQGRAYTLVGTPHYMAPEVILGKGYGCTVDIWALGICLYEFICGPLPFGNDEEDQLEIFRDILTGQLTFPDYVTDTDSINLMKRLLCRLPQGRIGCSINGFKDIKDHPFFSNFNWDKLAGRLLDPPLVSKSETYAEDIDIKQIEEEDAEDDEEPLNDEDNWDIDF

For the molecule `CC(C)(CN)c1nc(-c2ccc(Cl)c(O)c2)c(-c2ccncc2)[nH]1` [MMV030084], the “PKG pull-down by bead-bound compound” value in test [1] is listed as “pulled down”. Further, the pKd in test [2] was 7.02; in test [3], 8.35; in test [4] it was 8.07; in test [5], 7.70; in test [6], 7.70; in test [7], 7.46. The pKd in test [8] is 7.60.
